Patent publication US20020106347A1, “Cytokines and their use in treatment and/or prophylaxis of breast cancer” (priority 1995, published 2002)
“Also recorded” adds a separate entry of the source.

Key:
Assay type in all cases: cell-based, human
BT-549 cells = assay: Proliferation of BT-549 cells in culture, viable cell count; conditions: for effect on cell proliferation (in words): BT-549
Experimental: FIGS 5A and B are graphical representations of BT-549 cells in liquid culture. 10^4 BT-549 cells were cultured in 500 μl RPMI/10% (v/v) BCS containing the relevant concentration of each of the growth factors (OSM, IL-11 and IL-6). After 10 days, culture viable cells were counted using a hemacytometer. Cell numbers reported here in the two graphs are the results of 1 experiment performed in triplicate.
FIG. 18 is a graphical representation showing BT-549 cells after 10 days in suspension culture. 10^4BT-549 cells were cultured in 500 μl RPMI/10% (v/v) BCS with the indicated growth factor. After 10 days culture viable cells were counted using a hemacytometer. Results are from 6 experiments, each performed in triplicate.
(§1) Proliferation of the cell lines was measured in monolayer culture in 24 well Costar cluster plates. Cells were plated at an initial density of 10 000 cells/ml and cultured in 500 μl RPMI-1640 supplemented with 10% (v/v) (v/v) BCS and with each growth factor as indicated (LIF, 1000 U/ml; IL-6, 100 ng/ml; OSM, 10 ng/ml; CNTF, 10 ng/ml; IL-11, 100 ng/ml). These concentrations are maximally active in other systems (Nandurkar et al., 1996; Hilton et al., 1994; Zhang et al., 1994; Tanigawa et al., 1995). After 7 or 10 days at 37° C. in a fully humidified atmosphere containing 10% (v/v) CO2 in air, cells were trypsinised and counted using a haemocytometer and an inverted microscope. Cell viability was assessed using eosin exclusion. Results were expressed as a percentage of the corresponding untreated control value for that experiment.

MCF-7 cells [1] = assay: Cell morphology after exposure to growth factor; conditions: MCF-7 / MCF-7M, 6-14 days in growth factor
Excerpt: FIG. 4 is a photographic representation showing morphology of growth factor stimulated MCF-7M cells. Following 1 week in suspension culture containing the various growth factors, MCF-7M cells were cytospun onto slides and subsequently stained with Giemsa.
FIG. 11 is a photographic representation showing cell morphology after exposure to OSM. MCF-7 cells from control cultures and appears of cells after 7 days in OSM. A) Control cells, 10× magnification. B) OSM treated cells, 10× magnification. C) OSM treated cells, 40× magnification. D) OSM treated cells, 100× magnification.
(§2) FIG. 15 is a photographic representation showing cell morphology after exposure to OSM. MCF-7 cells from control cultures (Panel A) and appearance of cells after culture for 14 days in OSM (10 ng/ml) (Panel B). MDA-MB-231 cells from control cultures (Panel C) and appearance of cells after culture for 7 days in OSM (Panel D).

MDA-MB-231 cells [2] = assay: Proliferation of MDA-MB-231 cells in culture, viable cell count
Experimental: FIG. 19 is a graphical representation showing MDA-MB-231 cells after 7 days in suspension culture. 10^4MDA-MB-231 cells were cultured in 500 μl RPMI/10% (v/v) BCS with the indicated growth factor. After 7 days viable cells were counted using a hemacytometer. Results are from 8 experiments, each performed in triplicate.
as §1

T-47D cells = assay: Cell morphology after exposure to OSM; conditions: T-47D cultured with OSM
Excerpt: (§3) The action of IL-6, LIF, OSM CNTF and IL-11 was examined on 4 breast cancer cell lines grown in monolayer culture. Striking changes in the morphology of cells were observed. FIG. 15 compares morphology of untreated cells with cells exposed to OSM. […] This was associated with the appearance of decreased intercellular adhesion or cellular contraction. These changes were quite marked by day 14.

BT-549 = assay: Cell morphology after exposure to OSM; conditions: BT-549 exposed to OSM
Excerpt: as §3

MDA-MB-231 cells [3] = assay: Cell morphology after exposure to OSM; conditions: MDA-MB-231 exposed to OSM
Experimental: as §2, §3

MCF-7 cells [4] = assay: Cell cycle analysis by flow cytometry (DNA content); conditions: MCF-7, serum-free medium
Experimental: FIG. 9 is a graphical representation showing the effect of OSM on cell cycle. MCF-7 cells treated with OSM while growing in serum-free medium were harvested by treatment with trypsin and stained for DNA content analysis by flow cytometry. Cell cycle distributions were calculated by computer fitting of the resultant histograms. […] FIG. 10(b) represents data from 2 experiments (performed in triplicate) where the number of cells in S phase are represented as a percentage of the corresponding untreated control value.
Cell cycle distributions were calculated by computer fitting of the resultant histograms. Results represent the combined data from 3 experiments (performed in triplicate) where the number of cells in S phase are represented as a percentage of the corresponding untreated control value.
Cell cycle analysis was performed in serum-free medium (Sigma). Analysis was performed 2-4 days after cells were washed and re-cultured in serum-free medium. Growth factors were added to the medium as indicated. At the times shown thereafter, cells were harvested with 0.05% (w/v) trpsin-0.02% (w/v) EDTA. The cells were resuspended in serum-free tissue culture medium and after cell counting using a hemacytometer, stained for later DNA analysis by the addition of 0.25% prothidium iodide in the presence of 0.2% (v/v) Triton X-100. DNA histograms were obtained by using a FACScan flow cytometer (Becton Dickinson Immunocytochemistry Systems) and the cell cycle phase distribution was estimated by using the manufacturer's DNA analysis software (Cellfit). Each histogram contained 10,000 events.

[5] = tested on: primary normal breast cells; assay: Growth of primary normal breast cells in suspension culture; conditions: serum free breast media, 7 days
Experimental: FIG. 6 is a graphical representation of primary normal breast cells in suspension culture. 10^4 primary normal breast cells were cultured in 500 μl serum free breast media containing the indicated concentration of each of the growth factors (OSM and […]). After 7 days culture viable cells were counted using a hemacytometer. Cell numbers reported here are the results of 1 experiment, performed in triplicate.
Sterile normal breast tissue was obtained from reduction mammoplasty surgery. […] After 18 hours the mixture was centrifuged at 600 RCF/5 min, the supernatant discarded and the remaining cell pellet washed twice in RPMI-1640 supplemented with 10% (v/v) (v/v) BCS. […] Single cells adhered to the culture flasks and from these islands of cells epithelial cells grew. The media was subsequently removed and replaced with serum-free breast media. Partial trypsinisation removed any contaminating fibroblasts and the cells remaining were 95-100% epithelial. Cells were subsequently grown for approximately 30 days in the serum free breast media.

Row | Substance | effect on cell proliferation (in words) (BT-549 cells) | cell morphology (in words) (MCF-7 cells [1]) | effect on cellular proliferation (in words) (MDA-MB-231 cells [2]; MDA-MB-231) | cell morphology (in words) (T-47D cells) | cell morphology (in words) (BT-549) | cell morphology (in words) (MDA-MB-231 cells [3]) | mean growth inhibition (BT-549 cells; BT-549, 7 days) [%] | growth inhibition, up to (maximum observed) (BT-549 cells; BT-549, 10 days) | mean growth inhibition (BT-549 cells; BT-549, 10 days) [%] | effect on S phase fraction (in words) (MCF-7 cells [4]) | effect on percentage of cells in G1 phase (in words) (MCF-7 cells [4]) | number of cells in S phase as percentage of control cells (MCF-7 cells [4]; by 24 hour) [%] | percentage of cells in S phase following treatment (MCF-7 cells [4]; decreases from approximately 15% over a 72 hour time period) [%] | effect on proliferation (in words) [5] | inhibition of proliferation, up to (maximum observed) (MDA-MB-231 cells [2]; MDA-MB-231, 7 days) | mean inhibition of proliferation (MDA-MB-231 cells [2]; MDA-MB-231, 7 days, 8 experiments) [%]
1 | Leukemia Inhibitory Factor [LIF] | failure of BT-549 cells and MDA-MB-231 cells to respond | appeared larger than the control cells | did not result in significant effects on cellular proliferation | – | – | – | – | – | – | – | – | – | – | – | – | –
2 | oncostatin M [OSM] | inhibition of cell proliferation | more abundant cytoplasm and vacuolation; also recorded: more fibroblastic phenotype; also recorded: larger and more vacuolated than control cells | – | more rounded in appearance | Transformation to a fibroblastic phenotype | Transformation to a fibroblastic phenotype | 60 | up to 80% | 60 | marked decrease in the S phase cells; also recorded: decreased | concomitant increase in the percentage of cells in G1 phase | 50 | ~8 | profoundly inhibited the proliferation | up to 65% | 54
